These results are taken from US4594329A, “CRF analogs” (The Salk Institute for Biological Studies, priority 1984, dated 1986).

Square brackets hold non-standard residues; d marks the D form. hArg = N=C(N)NCCCC[C@H](N)C(=O)O; Nle = CCCC[C@H](N)C(=O)O; Orn = NCCC[C@H](N)C(=O)O

Test [1] can be described thus: lowering of blood pressure, in vivo testing. The following applies: for lowering of blood pressure: general procedure of Example III; for lowering of blood pressure compared with rCRF: comparison with rCRF.
The subject of test [2] is cultured rat pituitary cells. The test is described as follows: secretion of ACTH and β-endorphin by cultured rat pituitary cells. The test is classed as cell-based. The conditions noted are these: general procedure of Example III.
The conditions of test [3]: rats; administered into the ventricles; cited from earlier work.

As for “Ac-GEEPPISLDLTFHLLREVLEMARAEQLAQQAHLNRKLMEEI-NH2 [[Acetyl-Gly^1, Leu^33, Glu^40]-rCRF]”, the “lowering of blood pressure” value in test [1] is recorded as “very significant lowering of blood pressure”. The “stimulates the secretion of ACTH and β-END-LI” value (“stimulates the secretion” below) in test [2] was “stimulates the secretion of ACTH and β-END-LI”.

Take “Ac-PPISLDLTFHLLREVLEMARAEQLAEQAHSNRKYMEEI-NH2”: in test [1], the “lowering of blood pressure compared with rCRF” value (from here on “lowering … compared with rCRF”) is “to a greater extent than rCRF” and the “lowering of blood pressure” value is “very significant lowering of blood pressure”. Moreover, the “stimulates the secretion” value in test [2] was “stimulates the secretion of ACTH and β-END-LI”.

On to “CRF: corticotropin releasing factor, the hentetracontapeptide; species not stated at the place (H-SEEPPISLDLTFHLLREVLEMARAEQLAQQAHSNRKLMEII-NH2; ends and bridges not checked; UniProt P06850 154-194, looked up)”, for which, in test [3], the “activity” value is given as “increases activity” and the “learning performance” value is given as “improves learning performance”.

Consider “H-PPISIDLSLELLRKMIEIAKQEKEKEQAANNRLLMDTI-NH2”, for which the “lowering of blood pressure” value in test [1] was “very significant lowering of blood pressure”. The “stimulates the secretion” value in test [2] was “stimulates the secretion of ACTH and β-END-LI”.

For the substance “H-PPISLDLTFHLLREVLEMARAEQLAQQAHLNRKLMEQI-NH2”, the “lowering of blood pressure” value in test [1] is “very significant lowering of blood pressure”. Moreover, the “stimulates the secretion” value in test [2] was “stimulates the secretion of ACTH and β-END-LI”.

For “H-SEEPPISLDLTFHLLREVLEMTRAEQLAEQAHSNRKLMEEI-NH2 [[Thr^22, Glu^29,40]-rCRF]”, the “lowering of blood pressure” value in test [1] is on record as “very significant lowering of blood pressure”. Also, in test [2], the “stimulates the secretion” value is “stimulates the secretion of ACTH and β-END-LI”.

In the case of “H-SEEPPISLDLTFHLLREVLE[Nle]ARAEQLAQQAYLNRKLMEEI-NH2 [[Nle^21, Tyr^32, Leu^33, Glu^40]-rCRF]”, in test [1], the “lowering … compared with rCRF” value is given as “to a greater extent than rCRF” and the “lowering of blood pressure” value is reported as “very significant lowering of blood pressure”. In addition, in test [2], the “stimulates the secretion” value was “stimulates the secretion of ACTH and β-END-LI”.

For the substance “H-SEEPPISLDLTFHLLREVLE[Nle]A[hArg]AEQLAQQAHLNRKLMEE[Nle]-NH2”, in test [1], the “lowering of blood pressure” value is on record as “very significant lowering of blood pressure”. Further, in test [2], the “stimulates the secretion” value was “stimulates the secretion of ACTH and β-END-LI”.

“H-SEEPPISLDLTLELLREMLEME[Orn]AEKEAEQAALNRLLLEEA-NH2”: the “lowering of blood pressure” value in test [1] is “very significant lowering of blood pressure”. Further, the “stimulates the secretion” value in test [2] was “stimulates the secretion of ACTH and β-END-LI”.

As to “H-SEEPPISLELTFHLLREVLE[Nle]ARAEQLAEQAHLNRKLMEII-NH2 [[Glu^9, Nle^21, Glu^29, Leu^33]-rCRF]”, in test [1], the “lowering … compared with rCRF” value is “to a greater extent than rCRF” and the “lowering of blood pressure” value is “very significant lowering of blood pressure”. Besides, the “stimulates the secretion” value in test [2] was “stimulates the secretion of ACTH and β-END-LI”.

In the case of “H-SEEPPIS[Nle]DLSFHLLREVLEMARAEQLAQQAHLNRKLMEEI-NH2 [[Nle^8, Ser^11, Leu^33, Glu^40]-rCRF]”, the “lowering of blood pressure” value in test [1] is reported as “very significant lowering of blood pressure”. Further, the “stimulates the secretion” value in test [2] was “stimulates the secretion of ACTH and β-END-LI”.

As for “H-SQEPPISLDLTFALLREMLEMAKAEQEAEQAALNRLLLEEA-NH2 [[Ala^13]-AHC]”, the “lowering of blood pressure” value in test [1] is “very significant lowering of blood pressure”. Moreover, in test [2], the “stimulates the secretion” value was “stimulates the secretion of ACTH and β-END-LI”.

Turning to “H-SQEPPISLDLTFHLLREVLEMTRADQLAQQAHSNRRLLDIA-NH2 [[Arg^23,36]-oCRF]”, the “lowering of blood pressure” value in test [1] is on record as “very significant lowering of blood pressure”. Also, in test [2] (% of oCRF), the “secretion of ACTH and β-END-LI, amount relative to oCRF” value is on record as “about 370%”.

Consider “H-SQEPPISLDLTFHLLREVLE[Nle]TKADQLAEQAHSNRKLLDIA-NH2 [[Nle^21,Glu^29]-oCRF]”, for which the “lowering of blood pressure” value in test [1] was “very significant lowering of blood pressure”. Also, the “stimulates the secretion” value in test [2] is “stimulates the secretion of ACTH and β-END-LI”.

For “H-SQEPPISLDLTFHLLRE[Nle]LE[Nle]AKAEQEAEQAALNRLLLEEA-NH2 [[Nle^18, 21]-AHC]”, the “lowering of blood pressure” value in test [1] is on record as “very significant lowering of blood pressure”. In addition, the “stimulates the secretion” value in test [2] was “stimulates the secretion of ACTH and β-END-LI”.

For the substance “H-SQEPPISLDLTFHLLRE[Nle]LE[Nle]TKADQLRQQAHSNRKLLDIA-NH2 [[Nle^18,21,Arg^28]-oCRF]”, the “lowering of blood pressure” value in test [1] is listed as “very significant lowering of blood pressure”. In addition, in test [2], the “stimulates the secretion” value is “stimulates the secretion of ACTH and β-END-LI”.

“H-SQEPPISLDLTLELLREMLEMAKAEQEAEQAALNRLYLEEA-NH2 [[Leu^12, Glu^13, Tyr^37]-AHC]”: in test [1], the “lowering of blood pressure” value is recorded as “very significant lowering of blood pressure”. For the same substance, the “stimulates the secretion” value in test [2] is “stimulates the secretion of ACTH and β-END-LI”.

Turning to “H-SQEPPISLELTFHLLRE[Nle]LE[Nle]AKAEQEAEQAALNRLLLEEA-NH2 [[Glu^9, Nle^18, 21]-AHC]”, the “lowering of blood pressure” value in test [1] is “very significant lowering of blood pressure”. Further, the “stimulates the secretion” value in test [2] was “stimulates the secretion of ACTH and β-END-LI”.

Regarding “H-SQE[dP]PISLDLTFHLLRE[Nle]LE[Nle]AKAEQEAEQAALNRLLLEEA-NH2 [[D-Pro^4, Nle^18,21]-AHC]”, the “lowering of blood pressure” value in test [1] was “very significant lowering of blood pressure”. For the same substance, in test [2], the “stimulates the secretion” value is “stimulates the secretion of ACTH and β-END-LI”.

On to “H-SQ[dY][dP]PISLDLTFHLLRE[Nle]LE[Nle]AKAEQEAEQAALNRLLLEEA-NH2 [[D-Tyr^3, D-Pro^4, Nle^18, 21]-AHC]”, for which, in test [1], the “lowering of blood pressure” value is listed as “very significant lowering of blood pressure”. Besides, the “stimulates the secretion” value in test [2] is “stimulates the secretion of ACTH and β-END-LI”.

As to “H-YSEEPPISLDLTFHLLREVLEMARAEQLAEQAHSNRKLMEII-NH2 [[Tyr-Ser^1, Glu^29]-rCRF]”, the “lowering of blood pressure” value in test [1] was “very significant lowering of blood pressure”. Further, the “stimulates the secretion” value in test [2] is “stimulates the secretion of ACTH and β-END-LI”.
